Source: PubChem BioAssay (NCI)
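How tested: cells in 96-well plates exposed to compound for 48 hours at five concentrations. TGI: total growth inhibition.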

Key:
Test in all cases: growth of human tumour cells (NCI), 48 h
[1] = tested on: BT-549 breast
[2] = tested on: KM12 colon
[3] = tested on: COLO 205 colon
[4] = tested on: SW-620 colon
[5] = tested on: MOLT-4 leukemia
[6] = tested on: A549 NSCLC
[7] = tested on: RXF 393 renal
[8] = tested on: U251 CNS
[9] = tested on: NCI-H460 lung
[10] = tested on: K-562 leukemia

Row | Structure (SMILES) | TGI [1] | TGI [2] | TGI [3] | TGI [4] | TGI [5] | TGI [6] | TGI [7] | TGI [8] | TGI [9] | TGI [10]
1 | O=C1/C(=C\c2ccccc2)C(NC2CCCCC2)c2ccccc21 (stereo unspecified) | 5.69 µM | 15.9 µM | 3.22 µM | 2.12 µM | 3.02 µM | 16.4 µM | 2.93 µM | 3.48 µM | 8.02 µM | 5.07 µM
2 | COC(=O)c1ccccc1CC1Cc2ccc3c(c2C1=O)CCCC3 (stereo unspecified) | > 100 µM | > 100 µM | > 100 µM | > 100 µM | 46.5 µM | > 100 µM |  | > 100 µM | > 100 µM | > 100 µM
3 | COCO[C@@H]1C[C@H]2C(=O)Nc3ccccc3C(=O)N2C1 | > 100 µM | > 100 µM | > 100 µM | > 100 µM |  | > 100 µM | 41.7 µM | > 100 µM |  | 
4 | CCOC(=O)c1cn2c(n1)sc1cccc(C)c12 | > 100 µM | > 100 µM | > 100 µM |  |  | > 100 µM | > 100 µM |  | > 100 µM | 
5 | Nc1nc(SCCc2ccccc2)c2[nH]cnc2n1 | > 100 µM | > 100 µM |  | > 100 µM | > 100 µM | > 100 µM | > 100 µM | > 100 µM | > 100 µM | > 100 µM
6 | C[C@@H]1CC[C@]2(C(=O)O)CC[C@]3(C)C(=CC[C@@H]4[C@@]5(C)CC[C@H](O)C(C)(C)[C@@H]5CC[C@]43C)[C@@H]2[C@]1(C)O | 28.2 µM | 26.7 µM | 30 µM | 42.1 µM | 18.3 µM | 33.3 µM |  | 27.3 µM | 17.3 µM | 19.6 µM
7 | Cc1n[nH]c(=O)n1/N=C/c1ccc(Cl)cc1 | > 100 µM | > 100 µM | > 100 µM | > 100 µM | > 100 µM | > 100 µM | 72.3 µM |  | > 100 µM | > 100 µM
8 | COc1cccc(C(=O)O[C@H]2[C@@H]3[C@]4(OC(C)=O)CO[C@@H]4C[C@H](O)[C@@]3(C)C(=O)[C@H](OC(C)=O)C3=C(C)[C@@H](OC(=O)[C@H](O)[C@@H](NC(=O)OC(C)(C)C)c4ccco4)C[C@]2(O)C3(C)C)c1 | > 34.1 µM | > 15.2 µM | 0.119 µM | > 37.5 µM | 9.99 µM | > 37.5 µM | > 9.16 µM | > 16.6 µM | > 37.5 µM | 
9 | COc1cc(C(=O)N(C(=S)OCc2ccccn2)c2ccccc2)cc(OC)c1OC | > 100 µM | > 100 µM | > 100 µM | > 100 µM | > 100 µM |  | > 100 µM | > 100 µM | > 100 µM | > 100 µM
10 | COc1ccc(COCCOCc2nc(C#N)c(N)o2)cc1 | > 100 µM | > 100 µM | > 100 µM | > 100 µM | > 100 µM | > 100 µM | > 100 µM | > 100 µM | > 100 µM | > 100 µM
11 | Cc1ccc(C(=O)O)cc1S(=O)(=O)Nn1cnc2ccc(S(=O)(=O)Nc3ccccc3C(=O)O)cc2c1=O | > 100 µM | > 100 µM | > 100 µM | > 100 µM | > 100 µM | > 100 µM |  | > 100 µM | > 100 µM | > 100 µM
12 | O=C1C=CC(=O)c2c1ccc1c3ccccc3n(CCCCCCCCCCCCn3c4ccccc4c4ccc5c(c43)C(=O)C=CC5=O)c21 | > 100 µM | > 100 µM | > 100 µM | > 100 µM | > 90.5 µM | > 100 µM | > 100 µM | > 100 µM | > 100 µM | > 100 µM
13 | O=[N+]([O-])c1ccc2c(c1)c(OCc1ccccc1)nn2Cc1ccccc1 | > 100 µM | > 100 µM |  | > 100 µM | > 100 µM | > 100 µM | > 100 µM |  | > 100 µM | > 100 µM
14 | CC(C)=CCc1c2c(c3occ(-c4ccc(O)cc4)c(=O)c3c1O)CC(C(C)(C)O)O2 (stereo unspecified) | 31 µM | 35.5 µM | 30 µM | 64.4 µM | 31.8 µM | 27.8 µM | 30.3 µM | 25.9 µM | 26 µM | 42.1 µM
15 | C=CCN1C[C@H](C)N([C@H](c2ccc(C(=O)NC(CC)CC)cc2)c2cccc(OC)c2)C[C@H]1C | 99.6 µM | > 100 µM | 32.5 µM | > 100 µM | > 100 µM | > 100 µM | > 100 µM | > 100 µM | > 100 µM | > 100 µM
16 | COc1ccc(-c2cc(O)c3nc4ccccc4n3c2)cc1 | > 100 µM | > 100 µM | > 100 µM | > 100 µM | > 100 µM | > 100 µM | > 100 µM | > 100 µM | > 100 µM | > 100 µM

Row | Structure (SMILES) | TGI [1] | TGI [2] | TGI [3] | TGI [4] | TGI [5] | TGI [6] | TGI [7] | TGI [8] | TGI [9] | TGI [10]
17 | Nn1c(-c2ccccc2)nn(C(=O)c2ccccc2)c1=O | > 100 µM | > 100 µM | > 100 µM | > 100 µM | > 100 µM | > 100 µM | > 100 µM | > 100 µM | > 100 µM | > 100 µM
18 | Cc1cn2c(/C=N/N=C(N)N)c(-c3cccc([N+](=O)[O-])c3)nc2s1 | 3.3 µM | 2.38 µM |  | 2.7 µM | 4.04 µM | 4.94 µM | 2.5 µM | 2.95 µM | 3.78 µM | 
19 | C1CN(c2nc3c(nnc4nc(N5CCOCC5)sc43)s2)CCO1 | > 100 µM | > 100 µM | > 100 µM | > 100 µM | > 100 µM | > 100 µM | > 100 µM | > 100 µM |  | > 100 µM
20 | C=CC1(C)CCC2C(=CCC3C2(C)CC(O)C(O)C3(C)COC2OC(C(=O)O)C(O)C(O)C2O)C1 (stereo unspecified) (tested in a mixture with another compound) | > 100 µM | > 100 µM | > 100 µM | > 100 µM | > 100 µM | > 100 µM | > 100 µM | > 100 µM | > 100 µM | > 100 µM
21 | COC(=O)C([C@H](NC1(c2ccccc2)c2ccccc2-c2ccccc21)C(=O)OC)N(NC(=O)OCc1ccccc1)C(=O)OCc1ccccc1 (mixture of isomers) | > 100 µM | > 100 µM | > 100 µM | > 100 µM | > 100 µM | > 100 µM | > 100 µM | > 100 µM | > 100 µM | > 100 µM
22 | O=c1c2cc([N+](=O)[O-])cnc2sn1-c1ccc([N+](=O)[O-])cc1 | 93.9 µM | 62.4 µM | 37.3 µM | > 100 µM | 75.6 µM | > 100 µM |  | > 100 µM | > 100 µM | 
23 | S=C1Nc2ccccc2SC1c1ccccc1 (stereo unspecified) | > 100 µM | > 100 µM | > 100 µM |  | > 100 µM | > 100 µM | 92.5 µM | > 100 µM | > 100 µM | > 100 µM
24 | ClCCN1CCC2(CC1)SSC1(CCN(CCCl)CC1)S2 | > 100 µM | > 100 µM | 41.2 µM | > 100 µM | > 100 µM | > 100 µM |  | > 100 µM | > 100 µM | > 100 µM
25 | CCOC(=O)CSc1c(C(=O)OCC)c(=O)n(-c2ccccc2)c(=S)n1-c1ccccc1 | > 100 µM | > 100 µM | > 100 µM | > 100 µM | > 100 µM | > 100 µM |  | > 100 µM | > 100 µM | > 100 µM
26 | Cc1ccc(-c2n[nH]c(=O)n2N2C(=O)c3ccccc3C2=O)cc1 | > 100 µM | > 100 µM |  | > 100 µM | > 100 µM | > 100 µM | > 100 µM | > 100 µM | > 100 µM | > 100 µM
27 | O=c1[nH]c(Nc2cccc(CC(F)(F)F)c2)nc2nc[nH]c12 | > 100 µM | > 100 µM | > 100 µM | > 100 µM |  | > 100 µM |  | > 100 µM | > 100 µM | 
28 | N#CC1(C#N)N[C@@H](c2ccsc2)[C@H]2C(=O)N(c3ccccc3)C(=O)[C@H]21 | > 100 µM | > 100 µM | > 100 µM | > 100 µM | > 100 µM | > 100 µM | > 100 µM | > 100 µM |  | > 100 µM
29 | CC(=O)OC1CC(OC2C(O)CC(OC3C(O)CC(OC4CCC5(C)C(CCC6C5CC(O)C5(C)C(C7=CC(=O)OC7)CCC65O)C4)OC3C)OC2C)OC(C)C1OC1OC(CO)C(O)C(O)C1O (stereo unspecified) | 0.167 µM | 0.519 µM | 0.394 µM | 0.252 µM | > 100 µM | 0.0399 µM |  | 0.207 µM | 0.0678 µM | > 100 µM
30 | CCCN(C(=O)c1ccccc1)C(C#N)c1ccc(C(C#N)N(CCC)C(=O)c2ccccc2)cc1 (stereo unspecified) | > 100 µM | > 100 µM | > 100 µM | > 100 µM | > 100 µM | > 100 µM | > 100 µM | > 100 µM |  | > 100 µM
31 | N#Cc1c(-c2ccccc2)/c(=C\Nc2cccc(C(F)(F)F)c2)c(=O)n2c1nc1ccccc12 | > 100 µM | 53.4 µM | > 100 µM | > 100 µM |  | > 100 µM | 78.1 µM | > 100 µM | > 100 µM | 
32 | CN1C(=O)C2CCC(=O)N2c2cccnc21 (stereo unspecified) | > 100 µM | > 100 µM | > 100 µM | > 100 µM | > 100 µM | > 100 µM |  | > 100 µM | > 100 µM | > 100 µM
